According to PubChem BioAssay (NCI):
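The compound was tested at five concentrations on cells cultured in 96-well plates, with a 48-hour exposure period. GI50 marks 50% less growth. Definition used: TGI = concentration required for complete inhibition of growth.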

Experiments:
Assay in all cases: growth of human tumour cells (NCI), 48 h
[1] = tested on: HOP-62 NSCLC
[2] = tested on: OVCAR-4 ovarian
[3] = tested on: SK-MEL-2 melanoma
[4] = tested on: SNB-19 CNS
[5] = tested on: EKVX NSCLC
[6] = tested on: SK-MEL-5 melanoma
[7] = tested on: MDA-MB-468 breast
[8] = tested on: CAKI-1 renal
[9] = tested on: TK-10 renal
[10] = tested on: DU-145 prostate
[11] = tested on: A549 NSCLC
[12] = tested on: HCT-15 colon
[13] = tested on: SW-620 colon
[14] = tested on: MOLT-4 leukemia
[15] = tested on: UACC-257 melanoma
[16] = tested on: SK-OV-3 ovarian
[17] = tested on: HT29 colon
[18] = tested on: SNB-75 CNS
[19] = tested on: T-47D breast
[20] = tested on: HOP-92 NSCLC
[21] = tested on: HS 578T breast
[22] = tested on: NCI/ADR-RES ovarian
[23] = tested on: NCI-H460 lung
[24] = tested on: SF-539 CNS
[25] = tested on: CCRF-CEM leukemia
[26] = tested on: SK-MEL-28 melanoma
[27] = tested on: M14 melanoma
[28] = tested on: A498 renal
[29] = tested on: U251 CNS
[30] = tested on: MALME-3M melanoma
[31] = tested on: NCI-H23 lung
[32] = tested on: OVCAR-3 ovarian
[33] = tested on: PC-3 prostate
[34] = tested on: OVCAR-8 ovarian
[35] = tested on: SR leukemia
[36] = tested on: NCI-H522 lung
[37] = tested on: OVCAR-5 ovarian
[38] = tested on: KM12 colon
[39] = tested on: HL-60(TB) leukemia
[40] = tested on: RXF 393 renal
[41] = tested on: SN12C renal
[42] = tested on: LOX IMVI melanoma
[43] = tested on: 786-0 renal
[44] = tested on: NCI-H226 lung
[45] = tested on: UO-31 renal
[46] = tested on: BT-549 breast
[47] = tested on: MDA-MB-231 breast
[48] = tested on: ACHN renal
[49] = tested on: MDA-MB-435
[50] = tested on: HCT-116 colon
[51] = tested on: SF-295 CNS
[52] = tested on: MCF7 breast
[53] = tested on: K-562 leukemia
[54] = tested on: SF-268 CNS
[55] = tested on: IGROV1 ovarian
[56] = tested on: HCC-2998 colon
[57] = tested on: RPMI-8226 leukemia
[58] = tested on: UACC-62 melanoma
[59] = tested on: COLO 205 colon

Work on `Cc1ccc(NC(=O)N/N=C/c2c[nH]c3ccccc23)c(C)c1` yielded a GI50 [1] of 343 nM, a TGI [1] of 26200 nM and a GI50 [2] of 5490 nM. The TGI [2] was greater than 100000 nM, the GI50 [3] was 258 nM and the TGI [3] was 627 nM. It also gave a GI50 [4] of 554 nM, a TGI [4] of 27200 nM and a GI50 [5] of 469 nM. It also gave a TGI [5] greater than 100000 nM, a GI50 [6] of 226 nM and a TGI [6] of 8130 nM. It also gave a GI50 [7] of 178 nM, a TGI [7] of 543 nM and a GI50 [8] of 261 nM. It also gave a TGI [8] greater than 44000 nM, a GI50 [9] of 2590 nM and a TGI [9] of 39600 nM. It also gave a GI50 [10] of 432 nM, a TGI [10] of 19400 nM and a GI50 [11] of 588 nM. It also gave a TGI [11] of 45900 nM, a GI50 [12] of 78.5 nM and a TGI [12] greater than 34900 nM. It also gave a GI50 [13] of 203 nM, a TGI [13] greater than 100000 nM and a GI50 [14] of 269 nM. It also gave a TGI [14] greater than 32800 nM, a GI50 [15] of 573 nM and a TGI [15] of 47500 nM. For the same compound, the GI50 [16] was 391 nM, the TGI [16] was 25300 nM and the GI50 [17] was 164 nM. It also gave a TGI [17] of 1040 nM, a GI50 [18] of 343 nM and a TGI [18] of 5600 nM. For the same compound, the GI50 [19] was 363 nM, the TGI [19] was 78000 nM and the GI50 [20] was 1600 nM. For the same compound, the TGI [20] was 19000 nM, the GI50 [21] was 281 nM and the TGI [21] was 23100 nM. The GI50 [22] was 68.9 nM, the TGI [22] was 631 nM and the GI50 [23] was 357 nM. The TGI [23] was 15700 nM, the GI50 [24] was 217 nM and the TGI [24] was 700 nM. It also gave a GI50 [25] of 308 nM, a TGI [25] greater than 40000 nM and a GI50 [26] of 1450 nM. It also gave a TGI [26] greater than 79300 nM, a GI50 [27] of 175 nM and a TGI [27] of 12800 nM. For the same compound, the GI50 [28] was 12700 nM, the TGI [28] was 38400 nM and the GI50 [29] was 316 nM. For the same compound, the TGI [29] was 12800 nM, the GI50 [30] was 241 nM and the TGI [30] was 19100 nM. It also gave a GI50 [31] of 418 nM, a TGI [31] of 12200 nM and a GI50 [32] of 138 nM. The TGI [32] was 1800 nM, the GI50 [33] was 517 nM and the TGI [33] was greater than 100000 nM. For the same compound, the GI50 [34] was 378 nM, the TGI [34] was 3110 nM and the GI50 [35] was 33.6 nM. It also gave a TGI [35] greater than 21900 nM, a GI50 [36] of 37.9 nM and a TGI [36] of 327 nM. For the same compound, the GI50 [37] was 565 nM, the TGI [37] was 15500 nM and the GI50 [38] was 205 nM. For the same compound, the TGI [38] was 10100 nM, the GI50 [39] was 99.7 nM and the TGI [39] was 2730 nM. The GI50 [40] was 267 nM, the TGI [40] was 6230 nM and the GI50 [41] was 419 nM. The TGI [41] was 8970 nM, the GI50 [42] was 365 nM and the TGI [42] was 8330 nM. The GI50 [43] was 481 nM, the TGI [43] was 13900 nM and the GI50 [44] was 2500 nM. The TGI [44] was greater than 100000 nM, the GI50 [45] was 458 nM and the TGI [45] was greater than 67000 nM. For the same compound, the GI50 [46] was 596 nM, the TGI [46] was 23900 nM and the GI50 [47] was 495 nM. It also gave a TGI [47] of 5410 nM, a GI50 [48] of 637 nM and a TGI [48] greater than 57600 nM. It also gave a GI50 [49] of 28.1 nM, a TGI [49] of 110 nM and a GI50 [50] of 245 nM. The TGI [50] was 4790 nM, the GI50 [51] was 239 nM and the TGI [51] was 12000 nM. For the same compound, the GI50 [52] was 235 nM, the TGI [52] was 27900 nM and the GI50 [53] was 41.8 nM. The TGI [53] was greater than 100000 nM, the GI50 [54] was 828 nM and the TGI [54] was 23400 nM. For the same compound, the GI50 [55] was 378 nM, the TGI [55] was 20100 nM and the GI50 [56] was 492 nM. For the same compound, the TGI [56] was 4530 nM, the GI50 [57] was 373 nM and the TGI [57] was 25600 nM. It also gave a GI50 [58] of 151 nM, a TGI [58] of 5270 nM and a GI50 [59] of 361 nM. For the same compound, the TGI [59] was 1590 nM.
